From US9119881B2, “Method of synergistically enhancing the therapeutic efficacy and safety of medication through a combination therapy” (priority 2010, dated 2015)

Legend:
F4/80+CD11b+ macrophages = experiment: Macrophage infiltration into white adipose tissue of db/db mice, flow cytometry; assay type: in vivo; settings: day 60
Protocol: (§1) Obese db/db mice were fed high-fat diets containing 0, 15, or 70 mg/kg diet rosiglitazone maleate (control, Ros^lo, and Ros^hi, respectively) with and without racemic ABA (100 mg/kg diet). On day 60 the percent of F4/80+CD11b+ in the stromal vascular fractions of abdominal white adipose tissue (Ab. WAT) (A) and subcutaneous WAT (B) were assessed by flow cytometry. The percent of CD11b+CCR2+ monocytes (C) and CD4+CD25+FoxP3+ Tregs (D) in blood were assessed in whole blood. The expressions of the M1 marker CCL17 (E) and peroxisome proliferator activated receptor γ (PPAR γ) (F) in Ab. WAT were calculated as a ratio to the housekeeping gene f3-actin. Data are represented as mean±standard error.
(§2) Mice (n=40) were fed one of six experimental diets: a control high-fat diet (control), a high-fat diet containing low dose rosiglitazone maleate (Ros^lo, 10 mg/kg diet), or a high-fat diet containing a high dose of rosiglitazone maleate (Ros^hi, 70 mg/kg diet), each with or without all racemic ABA (100 mg/kg, Sigma Aldrich, St. Louis, Mo.) for 60 days. […] Blood glucose levels were assessed with an ACCU-CHEK® Glucometer (Roche, Indianapolis, Ind.). An intraperitoneal glucose tolerance test (IPGTT, 1 g glucose/kg body weight) was conducted on fasted mice (12 h) for 0, 30, 90, and 180 minute time points and insulin levels were measured on day 54. […]

[1] = tested on: human aorta endothelial cells (HAECs); experiment: Intracellular cAMP assessment in HAECs; assay type: cell-based; settings: 5 min stimulation, beginning at 0.1 uM ABA
Protocol: These cells were serum-starved using HBSS buffer for 30 min and then stimulated with various concentrations of abscisic acid (ABA) or Forskolin (forsk, 1 uM) for 5 minutes. After removing supernatant, cells were lysed with 0.1 M HCL to measure nonacetylated cAMP. Results (pmol/ml) from four independent experiments are depicted. Data are represented as mean±standard error.
Confluent human aorta endothelial cells (HAECs) were serum-starved using HBSS buffer for 30 min, then stimulated with various concentration of ABA and Forskolin (1 uM) for 5 min, after removing supernatant, cells were lysed with 0.1 M HCL to measure non-acetylated cAMP using a commercially available kit (Cayman chemical) following the manufacturer's instructions. Results (pmol/mL) were obtained from four independent experiments. For nitric oxide (NO), confluent HAECs were serum-starved for 30 min by using HBSS buffer, then treated with ABA for 15 min. Supernatant was used to measure NO using an fluorescent kit.

[2] = tested on: blood CCR2+CD11b+ monocytes and regulatory T cells (Tregs); experiment: Blood immune cell populations of db/db mice, flow cytometry; assay type: in vivo; settings: whole blood
Protocol: as §1, §2

[3] = Systolic blood pressure in ApoE-deficient mice; assay type: in vivo
[4] = mice fed ABA at doses ranging from 100 to 800 mg/kg of diet [44]; cited from earlier work
[5] = Intraperitoneal glucose tolerance test and fasting insulin in db/db mice; assay type: in vivo
Protocol: Obese db/db mice were fed high-fat diets containing […] mg/kg diet rosiglitazone maleate (control, Ros^lo, and Ros^hi, respectively) with and without racemic ABA (100 mg/kg diet). On day 42 mice underwent an intraperitoneal glucose tolerance test (IPGTT) (A). Areas under the curve (B) were calculated for each treatment. On day 55 fasting insulin levels were measured for mice on each diet (C). Data are represented as mean±standard error.
Mice (n=40) were fed one of six experimental diets: a control high-fat diet (control), a high-fat diet containing low dose rosiglitazone maleate (Ros^lo, 10 mg/kg diet), or a high-fat diet containing a high dose of rosiglitazone maleate (Ros^hi, 70 mg/kg diet), each with or without all racemic ABA (100 mg/kg, Sigma Aldrich, St. Louis, Mo.) for 60 days. Mice were weighed and fasting (12 h) blood glucose levels were taken weekly. Blood glucose levels were assessed with an ACCU-CHEK® Glucometer (Roche, Indianapolis, Ind.). An intraperitoneal glucose tolerance test (IPGTT, 1 g glucose/kg body weight) was conducted on fasted mice (12 h) for 0, 30, 90, and 180 minute time points and insulin levels were measured on day 54. On day 60 mice were sacrificed by CO2 narcosis with secondary thoracotomy. Abdominal WAT, inguinal subcutaneous WAT, and liver were then excised and weighed. Abdominal and subcutaneous WAT were then digested and fractionated.

[6] = tested on: retinoid X receptor (RXR); experiment: RXR luciferase reporter in transfected 3T3-L1 preadipocytes; assay type: cell-based; settings: ABA 10 μM with 9-cis retinoic acid 10 μM
Protocol: A pCMX.L-RXR or pCMX.RAR expression plasmid and a luciferase reporter plasmid were purified using Qiagen's Maxi kit (Valencia, Calif.). 3T3-L1 preadipocytes (American Type Culture Collection, Manassas, Va.) were grown in DMEM high glucose medium (Invitrogen, Carlsbad, Calif.) containing 10% fetal bovine serum (FBS). The cells cultured in 25 cm^2 flasks were co-transfected with 0.6 ug plasmid DNA and 1 ng of pRL reporter control plasmid per well using F-2 transfection reagents (Targeting Systems, Santee, Calif.) according to the manufacturer's protocol. After 24 hours, transfected cells were split trypsin and seeded into 96-well white plates at a concentration of 20,000 cells/wells. The transfected cells were then treated with 9-cis retinoic acid (0, 10 μM; Sigma), or retinoic acid (RA, 10 μM; Sigma), with ABA (10 μM; Sigma) Transfected cells were harvested in reporter lysis reagent. Luciferase activity, normalized to pRL activity in the cell extracts was determined by using the dual luciferase reporter assay system (Promega, Madison, Wis.) in a Modulus 96-well plate reader (Turner Biosystems, Sunnyvale, Calif.). Relative luciferase activity (RLA) was calculated as a ratio of the chemiluminescence 10 seconds after the Luciferase Assay Reagent II (Promega) was added over the chemiluminescence 10 seconds after the Stop&Glo Reagent (Promega).

Compound: CC1=CC(=O)CC(C)(C)C1(O)/C=C/C(C)=C\C(=O)O (racemic) [ABA, abscisic acid]
- ATM infiltration in SCAT (F4/80+CD11b+ macrophages; db/db mice fed the control and Ros^lo diets): significantly reduced
- macrophage (ATM) infiltration into Ab. WAT (F4/80+CD11b+ macrophages; db/db mice, ABA 100 mg/kg diet, Ros^lo, or both, relative to the control diet): little effect
- intracellular cAMP concentration [1]: significantly increased
- blood CCR2+CD11b+ monocyte levels [2]: mitigated
- percentages of blood regulatory T cells (Tregs) ([2]; independently of Ros): increased
- systolic blood pressure [3]: lowers
- side-effects [4]: no detectable side-effects
- glucose tolerance (IPGTT) ([5]; day 42, relative to the control diet): significantly improved
- fasting insulin levels ([5]; dietary ABA 100 mg/kg diet, P=0.04): significantly reduced
- activity of RXR ligands [6]: synergistically enhances
